Experimental data published in patent US4661505A, “Leukotriene antagonists” (Eli Lilly and Company, priority 1982, dated 1987).
Counter-ions that a name gives are not always drawn.

Target: T1, LTD4 evoked ileal contractions (Cavia porcellus, UniProt Q2NNR5)
T1 construct: A section of terminal ileum was removed, the lumen cleaned, and the tissue divided into 2.5 cm. segments; from tissue; host or cells: terminal ileum of male Hartley guinea pigs
T1 sequence (Q2NNR5 1-340): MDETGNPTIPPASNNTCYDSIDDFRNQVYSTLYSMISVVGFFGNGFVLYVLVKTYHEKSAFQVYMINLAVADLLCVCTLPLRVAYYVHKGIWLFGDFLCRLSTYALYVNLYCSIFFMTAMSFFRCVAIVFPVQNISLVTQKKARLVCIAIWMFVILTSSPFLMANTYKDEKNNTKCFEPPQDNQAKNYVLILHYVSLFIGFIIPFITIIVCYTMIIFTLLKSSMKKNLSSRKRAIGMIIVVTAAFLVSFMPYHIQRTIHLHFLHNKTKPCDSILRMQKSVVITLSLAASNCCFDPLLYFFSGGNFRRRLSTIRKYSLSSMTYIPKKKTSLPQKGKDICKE
Assay: Antagonism of LTD4-evoked contraction of isolated guinea pig ileum (single concentration)
Type: cell-based
Conditions: pure LTD4, 5 minute exposure, read-out: Percent Inhibition of LTD4 evoked ileal contractions; for inhibition at 10 µM: 1 × 10^-5 M; for inhibition at 3 µM: 3 × 10^-6 M; for inhibition at 1 µM: 1 × 10^-6 M
Experimental: Male, Hartley guinea pigs weighing 200-450 grams were killed by decapitation. A section of terminal ileum was removed, the lumen cleaned, and the tissue divided into 2.5 cm. segments. The ilea were mounted in 10 ml. tissue baths containing Krebs-bicarbonate solution of the following composition in mmoles/liter: KCl, 4.6; CaCl2.2H2 O, 1.2; KH2 PO4, 1.2; MgSO4.7H2 O, 1.2; NaCl, 118.2; NaHCO3, 24.8 and dextrose, 10.0. The bath fluid was maintained at 37° C. and aerated with 95 percent oxygen and 5 percent CO2. In addition, the buffer contained 1×10^-6 M atropine to reduce ileal spontaneous activity. In studies with crude SRS-A, 1×10^-6M pyrilamine was used to mitigate the actions of histamine present along with the biologically active leukotrienes. Isometric measurements were made with a Grass FTO3C force-displacement transducer and recorded on a Grass polygraph as change in grams of force. A passive force of 0.5 g. was applied to the tissues. After an appropriate equilibration period, single submaximal control responses to either SRS-A or pure LTD4 were obtained. Following a 5 minute exposure of the ileum to an experimental drug, the control concentration of SRS-A or LTD4 was added to the tissue bath. The response of the ileum to SRS-A or LTD4 in the presence of the drug was compared to the response in the absence of the drug.
*Compounds marked with an asterisk were tested using crude SRSA as the
ileumcontracting agent; all other compounds were tested using pure

| SMILES | inhibition at 10 µM | inhibition at 3 µM | inhibition at 1 µM |
| --- | --- | --- | --- |
| CCCc1c(OC(CCCCC(=O)O)c2ccccc2)ccc(C(C)=O)c1O (stereo not shown) [Example 19, 6-(4-Acetyl-3-hydroxy-2-propylphenoxy)-6-phenylhexanoic acid] | 64% | 35% | – |
| CCCc1c(OCCCCCCCC(=O)O)ccc(C(C)=O)c1O [Example 30, 8-(4-Acetyl-3-hydroxy-2-propylphenoxy)octanoic acid] | 94% | – | 62% |
| CCCc1c(OCCCCCCN(C)C)ccc(C(C)=O)c1O [Example 38, N,N-Dimethyl-[6-(4-acetyl-3-hydroxy-2-propylphenoxy)hexyl]amine hydrochloride] | 60% | 30% | – |
| CCCc1c(OCCCSC(=N)N)ccc(C(C)=O)c1O [Example 60, S-[3-(4-Acetyl-3-hydroxy-2-propylphenoxy)propyl]-isothiuronium hydrobromide] | – | 55% | 28% |
| CCCc1c(OCCCCCCC(=O)O)ccc(C(C)=O)c1O [Example 29, 7-(4-Acetyl-3-hydroxy-2-propylphenoxy)heptanoic acid] | 84% | – | 43% |
| CCCc1c(OCCCCC(=O)NO)ccc(C(C)=O)c1O [Example 61, 5-(4-Acetyl-3-hydroxy-2-propylphenoxy)pentanehydroxamic acid] | – | 70% | 28% |
| CCCc1c(OCCCCC(=O)OCC)ccc(C(C)=O)c1O [Example 54, Ethyl 5-(4-acetyl-3-hydroxy-2-propylphenoxy)pentanoate] | – | 56% | 40% |
| CCCc1c(OCCCCCc2nnn(CC(=O)O)n2)ccc(C(C)=O)c1O [Example 51, 5-(2H)-[5-(4-acetyl-3-hydroxy-2-propylphenoxy)pentyl]-2-tetrazolylacetic acid] | – | – | 69% |
| CC(=O)c1ccc(OCCCCC(C)(C)C(=O)O)cc1O [Example 47, 6-(4-Acetyl-3-hydroxyphenoxy)-2,2-dimethylhexanoic acid] | 22% | – | – |
| CC(=O)c1ccc(OC(C)CCCCC(=O)O)cc1O (stereo not shown) [Example 41, 6-(4-Acetyl-3-hydroxyphenoxy)heptanoic acid] | – | 10% | – |
| CCCc1c(OCCCCCc2nnnn2C)ccc(C(C)=O)c1O [Example 52, 1-Methyl-5-(1H)-[5-(4-acetyl-3-hydroxy-2-propylphenoxy)pentyl]-tetrazole] | – | – | 38% |
| CCCc1c(OCCCCCCN2CCN(C)CC2)ccc(C(C)=O)c1O [Example 37, N-Methyl-N'-[6-(4-acetyl-3-hydroxy-2-propylphenoxy)hexyl]piperazine dihydrochloride] | 78% | 32% | – |
| CC(=O)c1ccc(OC(CCCCC(=O)O)c2ccc(Cc3ccccc3)cc2)cc1O (stereo not shown) [Example 16, 6-(4-Acetyl-3-hydroxyphenoxy)-6-(4-benzylphenyl)hexanoic acid] | 86% | 70% | – |
| CCCc1c(OCCCCCCO)ccc(C(C)=O)c1O [Example 42, 6-(4-Acetyl-3-hydroxy-2-propylphenoxy)-1-hexanol] | 74% | 46% | – |
| CCCc1c(OCCCCCCCCCC(=O)O)ccc(C(C)=O)c1O [Example 32, 10-(4-Acetyl-3-hydroxy-2-propylphenoxy)decanoic acid] | 92% | 85% | 46% |
| CCCc1c(OCCCCCCN)ccc(C(C)=O)c1O [Example 36, 6-(4-Acetyl-3-hydroxy-2-propylphenoxy)hexylamine hydrochloride] | – | 42% | 26% |
| CCCc1c(OC(CCC)CCCCC(=O)O)ccc(C(C)=O)c1O (stereo not shown) [Example 48, 6-(4-Acetyl-3-hydroxy-2-propylphenoxy)nonanoic acid] | 34% | – | – |
| CCCc1c(OCCCCCc2nnnn2CC(=O)O)ccc(C(C)=O)c1O [Example 50, 5-(1H)-[5-(4-Acetyl-3-hydroxy-2-propylphenoxy)pentyl]-1-tetrazolylacetic acid] | – | – | 66% |

| SMILES | inhibition at 10 µM | inhibition at 3 µM | inhibition at 1 µM |
| --- | --- | --- | --- |
| CCCc1c(OCCCCCCCSc2nn[nH]n2)ccc(C(C)=O)c1O [Example 72, 5-[7-(4-Acetyl-3-hydroxy-2-propylphenoxy)heptanethio]-tetrazole] | – | – | 100% |
| CCCC(CCCCC(=O)O)Oc1ccc(C(C)=O)c(O)c1 (stereo not shown) [Example 49, 6-(4-Acetyl-3-hydroxyphenoxy)nonanoic acid] | 18% | – | – |
| CCCc1c(OCCCCCCN2CCOCC2)ccc(C(C)=O)c1O [Example 35, N-[6-(4-Acetyl-3-hydroxy-2-propylphenoxy)hexyl]morpholine hydrochloride] | 80% | 47% | – |
| CCCc1c(OCCCCCCCCCCC(=O)O)ccc(C(C)=O)c1O [Example 33, 11-(4-Acetyl-3-hydroxy-2-propylphenoxy)undecanoic acid] | 92% | 79% | – |
| CCCc1c(OCCCCC(C)(C)c2nnn[nH]2)ccc(C(C)=O)c1O [Example 39, 5-[5-(4-Acetyl-3-hydroxy-2-propylphenoxy)-1,1-dimethylpentyl]-tetrazole] | – | – | 89% |
| CCCc1c(OCCCCC(N)=O)ccc(C(C)=O)c1O [Example 55, 5-(4-Acetyl-3-hydroxy-2-propylphenoxy)pentanoic acid amide] | – | 59% | 28% |
| CCCc1c(OCCCCC(=O)N(C)C)ccc(C(C)=O)c1O [Example 56, N,N-dimethyl-5-(4-acetyl-3-hydroxy-2-propylphenoxy)pentanoic acid amide] | – | 42% | 17% |
| CCCc1c(OCCCCCCCCCCCCc2nnn[nH]2)ccc(C(C)=O)c1O [Example 14, 5-[12-(4-Acetyl-3-hydroxy-2-propylphenoxy)dodecyl]-tetrazole] | – | 47% | 22% |
| COC(=O)C(C)(C)CCCCOc1ccc(C(C)=O)c(O)c1 [Example 46, Methyl 6-(4-acetyl-3-hydroxyphenoxy)-2,2-dimethylhexanoate] | 23% | – | – |
| CCCc1c(OCCCCC(C)(C)C(=O)OC)ccc(C(C)=O)c1O [Example 44, Methyl 6-(4-acetyl-3-hydroxy-2-propylphenoxy)-2,2-dimethylhexanoate] | – | 55% | – |
| C=CCc1c(OCCCCCC(=O)O)ccc(C(C)=O)c1O [Example 26, 6-(4-Acetyl-3-hydroxy-2-allylphenoxy)-hexanoic acid] | – | 29% | – |
| CCCc1c(OCCCc2nnn[nH]2)ccc(C(C)=O)c1O [Example 23, 5-[3-(4-Acetyl-3-hydroxy-2-propylphenoxy)propyl]-tetrazole] | – | – | 15% |
| CCCc1c(OCCCCc2nnn[nH]2)ccc(C(=O)c2ccccc2)c1O [Example 43, 5-[4-(4-Benzoyl-3-hydroxy-2-propylphenoxy)butyl]-tetrazole] | – | 56% | 34% |
| CCCc1c(OCCCCC(C)(C)C(=O)O)ccc(C(C)=O)c1O [Example 45, 6-(4-Acetyl-3-hydroxy-2-propylphenoxy)-2,2-dimethylhexanoic acid] | 94% | 73% | – |
| CC(=O)c1ccc(OC(CCCCC(=O)O)c2ccc(-c3ccccc3)cc2)cc1O (stereo not shown) [Example 18, 6-(4-Acetyl-3-hydroxyphenoxy)-6-(4-biphenyl)hexanoic acid] | – | 34% | – |
| CCCc1c(OCCCCc2nnn[nH]2)ccc(C(C)=O)c1O [Example 8, 5-[4-(4-Acetyl-3-hydroxy-2-propylphenoxy)butyl]-tetrazole] | – | 100% | 89% |
| CCCc1c(OCCCCCCSc2nn[nH]n2)ccc(C(C)=O)c1O [Example 71, 5-[6-(4-Acetyl-3-hydroxy-2-propylphenoxy)hexanethio]-tetrazole] | 100% | – | 95% |
| CCCc1c(OC(CCCCC(=O)O)c2ccc(Cc3ccccc3)cc2)ccc(C(C)=O)c1O (stereo not shown) [Example 15, 6-(4-Acetyl-3-hydroxy-2-propylphenoxy)-6-(4-benzylphenyl)hexanoic acid] | 37% | – | – |
